Values after ≈ are worked out from the molar mass of the structure shown.
Legend:
Assay type in all cases: physicochemical
[1] = pH-Solubility profile (aqueous solubility); conditions: for solubility: aqueous solution, aqueous buffer
pKa = test: pKa
Distribution coefficient = test: Distribution coefficient
Solution pH = conditions: at about 1 μg/mL concentration in water
[2] = Solubility profile (USP definition) in solvents

CN1Cc2cc(-c3ccc(N)nn3)ccc2[C@H](c2ccc3ccccc3c2)C1 [Compound 2, (S)-6-(2-methyl-4-(naphthalen-2-yl)-1,2,3,4-tetrahydroisoquinolin-7-yl)pyridazin-3-amine]
solubility ([1]; at pH 2.0): 15600 µg/mL (≈ 42.6 mM) | solubility ([1]; at pH 4.4): 1760 µg/mL (≈ 4.8 mM) | solubility ([1]; at solution pH 6.5 and above): ≤ 1 µg/mL

CN1Cc2cc(-c3ccc(N)nn3)ccc2[C@H](c2ccc3ccccc3c2)C1 [Form N-1, 6-[(4S)-1,2,3,4-tetrahydro-2-methyl-4-(2-naphthalenyl)-7-isoquinolinyl]-3-pyridazinamine]
pKa (pKa; first of two printed pKa values): 4.9 | pKa (pKa; second of two printed pKa values): 7.8 | Distribution coefficient Log Do/b (Distribution coefficient; at pH 6.5): 3.10 | Distribution coefficient Log Do/b (Distribution coefficient; at pH 7.4): 3.82 | Solution pH (Solution pH): ~7.0 at about 1 μg/mL concentration in water | aqueous solubility (in words) ([1]; general statement, no pH given): high aqueous solubility | Solubility profile (USP definition) ([2]; N,N-dimethylacetamide): soluble: N,N-dimethylacetamide, dimethylsulfoxide | Solubility profile (USP definition) ([2]; PEG 400): sparingly soluble: PEG 400 | Solubility profile (USP definition) ([2]; acetone): slightly soluble: isopropanol, acetone, ethanol, methanol | Solubility profile (USP definition) ([2]; acetonitrile): very slightly soluble: acetonitrile, ethyl acetate, n-butanol | Solubility profile (USP definition) ([2]; dichloromethane): slightly soluble: isopropanol, acetone, ethanol, methanol | Solubility profile (USP definition) ([2]; dimethylsulfoxide): soluble: N,N-dimethylacetamide, dimethylsulfoxide | Solubility profile (USP definition) ([2]; ethanol): slightly soluble: isopropanol, acetone, ethanol, methanol | Solubility profile (USP definition) ([2]; ethyl acetate): very slightly soluble: acetonitrile, ethyl acetate, n-butanol | Solubility profile (USP definition) ([2]; isopropanol): slightly soluble: isopropanol, acetone, ethanol, methanol | Solubility profile (USP definition) ([2]; methanol): slightly soluble: isopropanol, acetone, ethanol, methanol | Solubility profile (USP definition) ([2]; n-butanol): very slightly soluble: acetonitrile, ethyl acetate, n-butanol | Solubility profile (USP definition) ([2]; n-heptane): practically insoluble: n-heptane | Solubility profile (USP definition) ([2]; propylene glycol): slightly soluble: isopropanol, acetone, ethanol, methanol | Solubility profile (USP definition) ([2]; tetrahydrofuran): freely soluble: tetrahydrofuran

— patent publication US8420811B2, “Tetrahydroisoquinolines and intermediates therefor” (Bristol-Myers Squibb Company, priority 2008, dated 2013)
